In ChEMBL document CHEMBL5104139, “A critical update on the strategies towards small molecule inhibitors targeting Serine/arginine-rich (SR) proteins and Serine/arginine-rich proteins related kinases in alternative splicing” (Bioorg Med Chem, 2022) one finds IC50 and inhibition data, which are given here for 7 compounds.

For orientation: IC50 means the concentration that gives 50% inhibition. The low end stands for higher potency, the high end for lower potency. For orientation: inhibition means how much of the control response was suppressed. Higher therefore signals a strong effect.

Experiment [1] deals with SRSF protein kinase 1 (Homo sapiens, UniProt Q96SB4).
The target in experiment [2] is T1, Dual specificity tyrosine-phosphorylation-regulated kinase 1A (Homo sapiens, UniProt Q13627).
The target of experiment [3] is Glycogen synthase kinase-3 (Homo sapiens, UniProt P49840+P49841). Kind of experiment: Inhibition of GSK3 (unknown origin). In kind it is protein assay.
The target in experiment [4] is Cyclin-dependent kinase 5 (Homo sapiens, UniProt Q00535). In words: Inhibition of CDK5 (unknown origin).
Experiment [5] concerns the target T2, Serine/arginine-rich splicing factor 6 (Homo sapiens, UniProt Q13247).
T2 sequence (Q13247 whole entry): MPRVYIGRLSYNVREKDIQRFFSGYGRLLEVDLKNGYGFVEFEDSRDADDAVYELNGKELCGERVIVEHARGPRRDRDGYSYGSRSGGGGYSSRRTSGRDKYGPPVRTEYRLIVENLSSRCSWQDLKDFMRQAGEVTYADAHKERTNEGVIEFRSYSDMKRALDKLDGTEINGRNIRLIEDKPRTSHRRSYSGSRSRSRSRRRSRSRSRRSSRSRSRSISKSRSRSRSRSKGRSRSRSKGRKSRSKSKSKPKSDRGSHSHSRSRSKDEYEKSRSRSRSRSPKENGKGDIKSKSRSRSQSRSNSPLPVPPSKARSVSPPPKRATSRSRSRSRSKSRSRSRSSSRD
Kind of experiment: Inhibition of SRSF6 (unknown origin).

Experiment [6] addresses SRSF protein kinase 2 (Homo sapiens, UniProt P78362).
The subject of experiment [7] is K562. In words: Cytotoxicity against human K562 cells. In kind it is functional, cell-based.
Experiment [8] deals with HL-60. In words: Cytotoxicity against HL-60 cells. In kind it is functional, cell-based. Conditions: Homo sapiens.
Experiment [9] concerns the target Dual specificity protein kinase CLK2 (Homo sapiens, UniProt P49760).
Experiment [10] concerns the target T1, Dual specificity tyrosine-phosphorylation-regulated kinase 1A. Kind of experiment: Inhibition of DYRK1A (unknown origin) at 1 uM relative to control.

Sequence of Cyclin-dependent kinase 5 (Q00535 whole entry): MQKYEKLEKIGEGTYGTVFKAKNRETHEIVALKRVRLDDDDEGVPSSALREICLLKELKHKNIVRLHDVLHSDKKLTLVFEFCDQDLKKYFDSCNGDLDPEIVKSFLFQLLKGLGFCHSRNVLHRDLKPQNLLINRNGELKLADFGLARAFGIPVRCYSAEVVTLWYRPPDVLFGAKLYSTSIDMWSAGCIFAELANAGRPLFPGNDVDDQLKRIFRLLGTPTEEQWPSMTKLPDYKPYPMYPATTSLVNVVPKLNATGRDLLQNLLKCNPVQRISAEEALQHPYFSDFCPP
Sequence of SRSF protein kinase 1 (Q96SB4 whole entry): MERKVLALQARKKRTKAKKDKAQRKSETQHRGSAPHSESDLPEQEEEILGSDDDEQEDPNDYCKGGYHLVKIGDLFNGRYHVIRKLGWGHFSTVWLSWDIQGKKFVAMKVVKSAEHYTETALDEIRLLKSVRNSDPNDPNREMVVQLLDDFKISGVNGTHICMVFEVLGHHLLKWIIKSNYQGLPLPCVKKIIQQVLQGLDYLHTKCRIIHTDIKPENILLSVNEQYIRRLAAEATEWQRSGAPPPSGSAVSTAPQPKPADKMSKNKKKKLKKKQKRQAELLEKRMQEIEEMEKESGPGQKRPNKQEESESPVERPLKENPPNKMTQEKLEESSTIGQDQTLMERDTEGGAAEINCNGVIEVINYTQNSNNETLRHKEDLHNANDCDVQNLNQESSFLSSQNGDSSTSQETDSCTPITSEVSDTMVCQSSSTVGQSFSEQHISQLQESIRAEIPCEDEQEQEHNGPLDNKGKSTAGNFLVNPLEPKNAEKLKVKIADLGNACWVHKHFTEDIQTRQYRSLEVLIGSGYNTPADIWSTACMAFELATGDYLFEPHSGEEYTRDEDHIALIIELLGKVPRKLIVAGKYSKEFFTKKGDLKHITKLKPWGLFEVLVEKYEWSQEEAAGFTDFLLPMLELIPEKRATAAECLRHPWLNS
Sequence of Dual specificity protein kinase CLK2 (P49760 whole entry): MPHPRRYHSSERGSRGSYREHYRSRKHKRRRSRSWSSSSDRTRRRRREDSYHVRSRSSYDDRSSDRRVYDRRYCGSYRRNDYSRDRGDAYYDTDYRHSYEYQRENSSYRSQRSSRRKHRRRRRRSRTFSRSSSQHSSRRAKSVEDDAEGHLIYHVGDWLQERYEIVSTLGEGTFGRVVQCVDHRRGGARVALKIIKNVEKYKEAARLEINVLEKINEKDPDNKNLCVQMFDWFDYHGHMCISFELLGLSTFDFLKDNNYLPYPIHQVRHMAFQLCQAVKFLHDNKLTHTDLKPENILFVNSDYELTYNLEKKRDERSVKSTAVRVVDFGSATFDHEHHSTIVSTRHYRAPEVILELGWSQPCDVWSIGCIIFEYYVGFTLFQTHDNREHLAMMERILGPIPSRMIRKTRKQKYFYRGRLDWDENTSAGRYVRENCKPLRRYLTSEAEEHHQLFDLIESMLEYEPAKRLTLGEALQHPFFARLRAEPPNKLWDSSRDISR
Sequence of SRSF protein kinase 2 (P78362 whole entry): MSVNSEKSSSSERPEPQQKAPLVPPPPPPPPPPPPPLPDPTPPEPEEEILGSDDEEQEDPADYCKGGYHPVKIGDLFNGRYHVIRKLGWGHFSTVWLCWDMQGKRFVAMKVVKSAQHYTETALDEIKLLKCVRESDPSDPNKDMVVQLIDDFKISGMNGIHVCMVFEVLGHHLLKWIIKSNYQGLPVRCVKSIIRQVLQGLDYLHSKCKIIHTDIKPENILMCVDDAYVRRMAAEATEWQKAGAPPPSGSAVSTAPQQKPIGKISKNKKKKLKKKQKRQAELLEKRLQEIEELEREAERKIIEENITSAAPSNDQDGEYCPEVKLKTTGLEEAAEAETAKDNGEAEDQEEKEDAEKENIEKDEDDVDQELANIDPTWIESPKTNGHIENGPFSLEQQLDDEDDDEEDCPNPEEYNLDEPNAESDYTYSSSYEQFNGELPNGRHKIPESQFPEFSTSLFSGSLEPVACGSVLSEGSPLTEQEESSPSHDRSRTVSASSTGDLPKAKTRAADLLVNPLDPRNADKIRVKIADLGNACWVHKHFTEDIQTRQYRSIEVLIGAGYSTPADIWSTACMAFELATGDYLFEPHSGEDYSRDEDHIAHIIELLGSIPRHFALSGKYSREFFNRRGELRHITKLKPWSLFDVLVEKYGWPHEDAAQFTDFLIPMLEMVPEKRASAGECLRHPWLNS

On to `O=C(Nc1cc(C(F)(F)F)ccc1N1CCCCC1)c1ccncc1`, for which, in [1], the IC50 is 890 nM.

`C.O=c1oc2cc(O)ccc2c2c1[nH]c1ccccc12`: the IC50 came out at 74 nM in experiment [2], 380 nM in experiment [3] and 2700 nM in [4].

For the compound `O=c1oc2cc(O)ccc2c2c1[nH]c1ccc(O)cc12`, the values for the IC50 in experiment [2], in experiment [3] and in experiment [4] were 67 nM, 310 nM and 720 nM, respectively.

The compound `CCc1cc2c(cc1CC)CC(NC[C@H](O)c1ccc(O)c3[nH]c(=O)ccc13)C2` [INDACATEROL] returned an IC50 in [5] of 19000 nM.

On to `COc1cc(/C=C2/C(=N)N3N=C(C(F)(F)F)SC3=NC2=O)ccc1O`, for which the IC50 came out at 203 nM in experiment [6], 44700 nM in [7] and 44700 nM in experiment [8].

`O=C(Oc1cc(O)c2c(c1)OC(c1cc(O)c(O)c(O)c1)CC2)c1cc(O)c(O)c(O)c1` (stereo not drawn) returned an IC50 in experiment [9] of 2700 nM.

`c1cc(-c2ccc3[nH]ncc3c2)ccn1` registered an inhibition in experiment [10] of 84%.
